Data published in US6028198A (priority 1993, dated 2000).

Tests used:
[1] = mouse, in vivo
[2] = mouse, in vivo; remark: listed apart in the source
[3] = parameters: species or system Japanese white rabbit; conditions: rabbit, in vivo; for Equivalent dose (ED50), preventing adversive circling syndrome in rabbits: po
[4] = mouse, in vivo; remark: listed apart in the source
[5] = in vivo
[6] = parameters: species or system human (medical worker volunteers); conditions: in vivo, po
[7] = parameters: species or system human (sailor volunteers); conditions: in vivo, po
[8] = parameters: species or system human; conditions: in vivo
[9] = parameters: species or system human (volunteers); conditions: in vivo
[10] = parameters: species or system human (volunteers); conditions: in vivo; remark: listed apart in the source
[11] = parameters: species or system domestic cat; conditions: in vivo; for Equivalent dose (ED50), preventing motion sickness-like syndrome in cats: cat, po

**Q.** What does the source list for `OC(CCCN1CCCCC1)(c1ccccc1)c1ccccc1` [Diphenidol]?
**A.** C/A (ratio of ED50), potentiating sodium pentobarbital in mice [1]: 6.9; C/A (ratio of ED50), inhibiting salivary secretion in mice [2]: 13.6; C/A (ratio of ED50 of diphenidol to that of the composition), adversive circling in rabbits [3]: > 115; Equivalent dose (ED50), preventing adversive circling syndrome in rabbits [3]: > 50 mg/kg; C/A (ratio of ED50), mydriatic effect in mice [4]: 10.5; Incidence of somnolence [5]: 18.7%; Ineffective rate, Bus [6]: 18.2%; Significantly effective rate, Bus [6]: 49.1%; Total effective rate, Bus [6]: 63.6%; Ineffective rate, Ship [7]: 10.0%; Significantly effective rate, Ship [7]: 66.7%; Total effective rate, Ship [7]: 76.7%; Total effective, significantly effective and ineffective rates compared with placebo [8]: significantly different from those of the placebo group; Effect on changes of electronystagmogram [9]: obvious efficacy; Nystagmus after rotation, postmedication ([9]; po): 11.2 ± 6.2 degree/s; Nystagmus during rotation, postmedication ([9]; po): 6.9 ± 3.4 degree/s; Effect on changes of electrogastrogram of body of stomach and gastric antrum [10]: obvious efficacy; Amplitude of electrogastrogram of antrum of stomach, postmedication ([10]; po): 414 ± 265 μV; Amplitude of electrogastrogram of body of stomach, postmedication ([10]; po): 396 ± 227 μV; Equivalent dose (ED50), preventing motion sickness-like syndrome in cats [11]: 20.18 mg/kg; C/A (ratio of ED50 of diphenidol to that of the composition), motion sickness-like syndrome in cats [11]: 91.3

**Q.** For `CN1[C@@H]2C[C@@H](OC(=O)[C@H](CO)c3ccccc3)C[C@H]1[C@@H]1O[C@@H]12` [Scopolamine], which “B/A (ratio of ED50), potentiating sodium pentobarbital in mice” value [1] is on record?
**A.** The value was 0.24.

**Q.** And the “B/A (ratio of ED50), inhibiting salivary secretion in mice” value [2]?
**A.** Its value is 0.13.

**Q.** And the “B/A (ratio of ED50 of scopolamine to that of the composition), adversive circling in rabbits” value [3]?
**A.** Its value is 0.30.

**Q.** What about the “Equivalent dose (ED50), preventing adversive circling syndrome in rabbits” value [3] of the same compound?
**A.** Its value is 0.129 mg/kg.

**Q.** And the “B/A (ratio of ED50), mydriatic effect in mice” value [4]?
**A.** Its value is 0.072.

**Q.** What about the “Equivalent dose (ED50), preventing motion sickness-like syndrome in cats” value [11] of the same compound?
**A.** Its value is 0.059 mg/kg.

**Q.** What about the “B/A (ratio of ED50 of scopolamine to that of the composition), motion sickness-like syndrome in cats” value [11] of the same compound?
**A.** The value was 0.30.
